According to the supplement of paper PMC11451515:

Tested on: P12-Ichikawa
Assay: cell viability relative to DMSO control; higher = less cytotoxic
Conditions: 48 h
In short: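 Viability, reported as a per-plate percentage of DMSO wells with cell-free wells as background, came from CellTiter-Glo One luminescence. Reading took place after 48 h at 37°C. Before that, NOMO1 or SEM (500 cells/well) or P12-Ichikawa (1000 cells/well) leukemia cells, adapted for at least four passages in each medium, were seeded in 1536-well plates (5 μl) and pin-dosed with library compounds in DMSO, 47 μM to 0.79 nM over 11 threefold points.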

[1] = HPLM + 10% dialyzed FBS, 0.000781 µM
[2] = HPLM + 10% dialyzed FBS, 0.00234 µM
[3] = HPLM + 10% dialyzed FBS, 0.00702 µM
[4] = HPLM + 10% dialyzed FBS, 0.0211 µM
[5] = HPLM + 10% dialyzed FBS, 0.0632 µM
[6] = HPLM + 10% dialyzed FBS, 0.19 µM
[7] = HPLM + 10% dialyzed FBS, 0.569 µM
[8] = HPLM + 10% dialyzed FBS, 1.71 µM
[9] = HPLM + 10% dialyzed FBS, 5.12 µM
[10] = HPLM + 10% dialyzed FBS, 15.4 µM
[11] = HPLM + 10% dialyzed FBS, 46.1 µM
[12] = RPMI 5 mM glucose + 10% FBS, 0.000781 µM
[13] = RPMI 5 mM glucose + 10% FBS, 0.00234 µM
[14] = RPMI 5 mM glucose + 10% FBS, 0.00702 µM
[15] = RPMI 5 mM glucose + 10% FBS, 0.0211 µM
[16] = RPMI 5 mM glucose + 10% FBS, 0.0632 µM
[17] = RPMI 5 mM glucose + 10% FBS, 0.19 µM
[18] = RPMI 5 mM glucose + 10% FBS, 0.569 µM
[19] = RPMI 5 mM glucose + 10% FBS, 1.71 µM
[20] = RPMI 5 mM glucose + 10% FBS, 5.12 µM
[21] = RPMI 5 mM glucose + 10% FBS, 15.4 µM
[22] = RPMI 5 mM glucose + 10% FBS, 46.1 µM
[23] = RPMI 5 mM glucose + 10% dialyzed FBS, 0.000781 µM
[24] = RPMI 5 mM glucose + 10% dialyzed FBS, 0.00234 µM
[25] = RPMI 5 mM glucose + 10% dialyzed FBS, 0.00702 µM
[26] = RPMI 5 mM glucose + 10% dialyzed FBS, 0.0211 µM
[27] = RPMI 5 mM glucose + 10% dialyzed FBS, 0.0632 µM
[28] = RPMI 5 mM glucose + 10% dialyzed FBS, 0.19 µM
[29] = RPMI 5 mM glucose + 10% dialyzed FBS, 0.569 µM
[30] = RPMI 5 mM glucose + 10% dialyzed FBS, 1.71 µM
[31] = RPMI 5 mM glucose + 10% dialyzed FBS, 5.12 µM
[32] = RPMI 5 mM glucose + 10% dialyzed FBS, 15.4 µM
[33] = RPMI 5 mM glucose + 10% dialyzed FBS, 46.1 µM

| Structure (SMILES) | cell viability [1] [%] | cell viability [2] [%] | cell viability [3] [%] | cell viability [4] [%] | cell viability [5] [%] | cell viability [6] [%] | cell viability [7] [%] | cell viability [8] [%] | cell viability [9] [%] | cell viability [10] [%] | cell viability [11] [%] | cell viability [12] [%] | cell viability [13] [%] | cell viability [14] [%] | cell viability [15] [%] | cell viability [16] [%] | cell viability [17] [%] | cell viability [18] [%] | cell viability [19] [%] | cell viability [20] [%] | cell viability [21] [%] | cell viability [22] [%] | cell viability [23] [%] | cell viability [24] [%] | cell viability [25] [%] | cell viability [26] [%] | cell viability [27] [%] | cell viability [28] [%] | cell viability [29] [%] | cell viability [30] [%] | cell viability [31] [%] | cell viability [32] [%] | cell viability [33] [%] |
| --- | --- | --- | --- | --- | --- | --- | --- | --- | --- | --- | --- | --- | --- | --- | --- | --- | --- | --- | --- | --- | --- | --- | --- | --- | --- | --- | --- | --- | --- | --- | --- | --- | --- |
| CC[C@]12CC[C@H]3[C@@H](CCC/4=C/C(=O)CC[C@H]34)[C@@H]1CC[C@@]2(O)C#C | 94.2 | 85.6 | 83.8 | 87.2 | 104 | 89.2 | 68.9 | 79.3 | 85.5 | 82.6 | 90.5 | 86.3 | 88.3 | 87.2 | 90.4 | 85.1 | 83.9 | 75.1 | 88 | 86.1 | 79.6 | 83.7 | 83.3 | 79.5 | 88.3 | 79.3 | 86.7 | 78 | 81.3 | 77 | 83.1 | 73 | 79.7 |
| O=S(=O)([O-])CCS.[Na+] | 109 | 122 | 125 | 119 | 127 | 126 | 126 | 129 | 30.8 | 18.1 | 15.3 | 100 | 114 | 116 | 118 | 132 | 121 | 136 | 134 | 37 | 18.5 | 16.7 | 114 | 121 | 121 | 120 | 130 | 131 | 135 | 139 | 80.8 | 43.2 | 20.1 |
| COc1ccc(C(=O)c2c(C)n(CCN3CCOCC3)c3ccccc23)cc1 | 94.2 | 104 | 101 | 95.2 | 106 | 111 | 103 | 109 | 98.3 | 111 | 111 | 89.3 | 91.1 | 95 | 100 | 97.5 | 96.7 | 101 | 113 | 84.4 | 110 | 98.9 | 96.5 | 93.2 | 99.4 | 98.2 | 99.3 | 102 | 98.4 | 93.8 | 104 | 112 | 109 |
| COc1cc(Nc2c(C#N)cnc3cc(OCCCN4CCN(C)CC4)c(OC)cc23)c(Cl)cc1Cl | 112 | 112 | 110 | 110 | 117 | 120 | 120 | 97.6 | 42.4 | 4.36 | 4.46 | 103 | 123 | 112 | 115 | 121 | 122 | 122 | 109 | 54.2 | 6.74 | 5.61 | 111 | 110 | 126 | 128 | 124 | 127 | 129 | 105 | 64.5 | 7.05 | 5.93 |
| C[C@@H]1O[C@@H](O[C@H]2C[C@@H](O)[C@]3(CO)[C@H]4[C@H](O)C[C@]5(C)[C@@H](C6=CC(=O)OC6)CC[C@]5(O)[C@@H]4CC[C@]3(O)C2)[C@H](O)[C@H](O)[C@H]1O | 98.5 | 96.7 | 97.5 | 85.2 | 32.9 | 11.5 | 10.7 | 12.3 | 12.7 | 12.9 | 9.88 | 92.2 | 105 | 102 | 94.7 | 80 | 33.6 | 9.32 | 8.91 | 6.97 | 6.93 | 5.78 | 98.8 | 101 | 98.7 | 88.7 | 56.4 | 17.6 | 9.86 | 8.22 | 6.53 | 5.46 | 4.89 |
| Cc1cc(O)c2c(c1)C(=O)c1cccc(O)c1C2=O | 112 | 119 | 119 | 127 | 121 | 137 | 128 | 133 | 122 | 113 | 87.1 | – | – | – | – | – | – | – | – | – | – | – | – | – | – | – | – | – | – | – | – | – | – |
| O=C1\C=C/C=C2/[C@H]3CNC[C@H](C3)CN12 | 108 | 109 | 115 | 109 | 122 | 122 | 125 | 123 | 116 | 97.5 | 58.3 | 116 | 111 | 120 | 129 | 122 | 125 | 124 | 132 | 113 | 112 | 54.8 | 111 | 109 | 110 | 108 | 121 | 120 | 132 | 126 | 118 | 99.9 | 67.7 |
| C/C(=N\NC(=S)N1CCC1)c1ccccn1 | 105 | 92.4 | 47.6 | 29.3 | 12 | 8.28 | 5.61 | 10.9 | 8.16 | 1.94 | 20.3 | 110 | 96.3 | 57.6 | 22.7 | 10.4 | 8.95 | 8.33 | 6.64 | 5.66 | -0.453 | 9.21 | 117 | 107 | 64.9 | 29.8 | 12.9 | 9.03 | 6.61 | 6.04 | 3.26 | -0.0472 | 8.99 |
